Calls of active or inactive are those of the source.
How the values were obtained:
[1] = molecular target: T1, ATP-dependent 6-phosphofructokinase, platelet type (Homo sapiens, UniProt Q01813)
T1 sequence (Q01813 whole entry): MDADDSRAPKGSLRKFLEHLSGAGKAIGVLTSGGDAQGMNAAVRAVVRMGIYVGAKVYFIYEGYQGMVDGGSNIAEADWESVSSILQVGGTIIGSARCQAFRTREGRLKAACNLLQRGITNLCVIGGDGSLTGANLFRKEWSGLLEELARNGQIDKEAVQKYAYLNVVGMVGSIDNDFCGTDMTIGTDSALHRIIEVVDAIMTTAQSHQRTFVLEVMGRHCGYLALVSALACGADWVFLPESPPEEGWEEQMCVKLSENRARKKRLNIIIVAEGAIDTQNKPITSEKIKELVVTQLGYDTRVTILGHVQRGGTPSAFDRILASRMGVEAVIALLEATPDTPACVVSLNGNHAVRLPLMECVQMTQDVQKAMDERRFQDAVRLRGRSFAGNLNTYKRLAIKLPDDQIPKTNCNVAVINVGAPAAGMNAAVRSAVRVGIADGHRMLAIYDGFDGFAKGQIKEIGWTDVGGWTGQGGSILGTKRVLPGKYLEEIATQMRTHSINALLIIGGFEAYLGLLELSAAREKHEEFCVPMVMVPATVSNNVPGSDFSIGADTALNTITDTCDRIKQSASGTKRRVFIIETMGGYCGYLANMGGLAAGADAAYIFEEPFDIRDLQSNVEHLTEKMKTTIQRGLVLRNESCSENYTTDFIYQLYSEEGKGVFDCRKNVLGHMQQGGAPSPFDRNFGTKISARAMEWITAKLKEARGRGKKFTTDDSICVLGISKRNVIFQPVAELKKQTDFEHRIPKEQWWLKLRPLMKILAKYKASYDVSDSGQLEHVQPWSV

[2] = molecular target: T2, ATP-dependent RNA helicase DDX42 (Homo sapiens, UniProt Q86XP3)
T2 sequence (Q86XP3 whole entry): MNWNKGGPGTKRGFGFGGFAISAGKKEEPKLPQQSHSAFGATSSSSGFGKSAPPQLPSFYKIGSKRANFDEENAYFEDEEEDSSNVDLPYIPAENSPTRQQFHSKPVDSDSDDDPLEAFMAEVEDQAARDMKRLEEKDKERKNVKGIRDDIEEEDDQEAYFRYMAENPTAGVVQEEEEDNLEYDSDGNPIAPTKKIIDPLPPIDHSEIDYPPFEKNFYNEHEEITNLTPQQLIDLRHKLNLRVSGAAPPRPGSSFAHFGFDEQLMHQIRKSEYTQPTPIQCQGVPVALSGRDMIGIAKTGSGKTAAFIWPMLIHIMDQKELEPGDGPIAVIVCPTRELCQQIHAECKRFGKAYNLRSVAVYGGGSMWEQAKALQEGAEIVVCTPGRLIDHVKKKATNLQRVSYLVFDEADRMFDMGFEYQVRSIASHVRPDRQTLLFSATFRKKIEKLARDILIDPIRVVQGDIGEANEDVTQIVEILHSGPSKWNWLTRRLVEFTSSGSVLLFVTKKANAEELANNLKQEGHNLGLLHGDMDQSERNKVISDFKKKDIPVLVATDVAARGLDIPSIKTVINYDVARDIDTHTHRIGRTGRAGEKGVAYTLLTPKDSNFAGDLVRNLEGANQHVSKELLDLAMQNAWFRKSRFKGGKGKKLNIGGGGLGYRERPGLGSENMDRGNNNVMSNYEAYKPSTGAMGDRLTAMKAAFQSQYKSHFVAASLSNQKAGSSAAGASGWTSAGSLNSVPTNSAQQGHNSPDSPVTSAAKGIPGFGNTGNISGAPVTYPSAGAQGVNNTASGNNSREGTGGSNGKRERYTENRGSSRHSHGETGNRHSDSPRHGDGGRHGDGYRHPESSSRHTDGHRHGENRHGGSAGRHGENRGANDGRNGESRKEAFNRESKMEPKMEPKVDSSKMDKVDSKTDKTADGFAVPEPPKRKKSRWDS

dCTP pyrophosphatase 1 = molecular target: T3, dCTP pyrophosphatase 1 (Homo sapiens, UniProt Q9H773)
T3 sequence (Q9H773 whole entry): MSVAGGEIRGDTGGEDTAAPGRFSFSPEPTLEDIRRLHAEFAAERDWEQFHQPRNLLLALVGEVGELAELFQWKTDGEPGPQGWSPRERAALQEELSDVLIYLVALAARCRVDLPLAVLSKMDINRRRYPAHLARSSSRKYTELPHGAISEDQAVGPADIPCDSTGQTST

[3] = molecular target: Protein kinase C alpha type (Homo sapiens, UniProt P17252)
[4] = molecular target: T4, Acyl-CoA dehydrogenase family member 10 (Homo sapiens, UniProt Q6JQN1)
T4 sequence (Q6JQN1 whole entry): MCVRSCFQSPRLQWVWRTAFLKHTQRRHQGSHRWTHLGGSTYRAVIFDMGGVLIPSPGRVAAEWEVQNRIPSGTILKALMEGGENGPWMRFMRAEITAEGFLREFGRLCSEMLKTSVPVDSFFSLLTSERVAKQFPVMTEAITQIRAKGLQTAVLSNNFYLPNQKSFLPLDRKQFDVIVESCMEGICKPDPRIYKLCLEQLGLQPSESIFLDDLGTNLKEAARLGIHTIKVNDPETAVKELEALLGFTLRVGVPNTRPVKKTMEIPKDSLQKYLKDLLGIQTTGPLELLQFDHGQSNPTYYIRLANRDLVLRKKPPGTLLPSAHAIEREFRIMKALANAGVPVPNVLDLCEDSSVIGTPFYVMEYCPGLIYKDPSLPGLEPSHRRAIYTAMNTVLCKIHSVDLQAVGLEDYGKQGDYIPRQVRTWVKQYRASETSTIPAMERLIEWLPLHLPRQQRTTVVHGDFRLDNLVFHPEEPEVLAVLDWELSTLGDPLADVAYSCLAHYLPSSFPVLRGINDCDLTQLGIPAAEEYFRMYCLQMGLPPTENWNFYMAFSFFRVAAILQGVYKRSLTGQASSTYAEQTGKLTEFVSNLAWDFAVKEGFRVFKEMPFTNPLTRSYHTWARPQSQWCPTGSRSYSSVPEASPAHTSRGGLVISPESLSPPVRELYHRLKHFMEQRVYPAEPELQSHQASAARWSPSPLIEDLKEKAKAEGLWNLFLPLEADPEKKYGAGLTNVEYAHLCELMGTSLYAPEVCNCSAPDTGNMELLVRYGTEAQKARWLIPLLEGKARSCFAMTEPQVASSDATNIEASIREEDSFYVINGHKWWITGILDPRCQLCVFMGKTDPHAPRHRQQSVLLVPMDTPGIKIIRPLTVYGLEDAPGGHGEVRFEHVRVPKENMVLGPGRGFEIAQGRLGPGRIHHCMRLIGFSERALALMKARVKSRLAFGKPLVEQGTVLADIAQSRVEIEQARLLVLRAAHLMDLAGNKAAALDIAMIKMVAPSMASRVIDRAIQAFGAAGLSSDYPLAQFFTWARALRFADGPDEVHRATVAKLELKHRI

[5] = molecular target: Inosine-5'-monophosphate dehydrogenase 2 (Homo sapiens, UniProt P12268)
Also: in the data inactive means no Kd found up to 30 µM.

SMILES | Kd [1] | Kd [2] | Kd (dCTP pyrophosphatase 1) | Kd [3] | Kd [4] | Kd [5]
Cc1c(NC(=O)OC[C@@H]2COCCN2)cn2ncnc(Nc3ccc4c(cnn4Cc4cccc(F)c4)c3)c12 [AC-480] | > 30 µM (inactive) | > 30 µM (inactive) | > 30 µM (inactive) | > 30 µM (inactive) | > 30 µM (inactive) | –
CN(C)C/C=C/C(=O)Nc1cc2c(Nc3ccc(F)c(Cl)c3)ncnc2cc1O[C@H]1CCOC1 [AFATINIB] | – | > 30 µM (inactive) | > 30 µM (inactive) | > 30 µM (inactive) | > 30 µM (inactive) | > 30 µM (inactive)
COc1ccc2c(OCc3nnc4ccc(-c5ccccc5)nn34)ccnc2c1 [AMG-208] | – | > 30 µM (inactive) | > 30 µM (inactive) | > 30 µM (inactive) | > 30 µM (inactive) | > 30 µM (inactive)
c1cc(OCCN2CCCCC2)cc(-c2n[nH]c3ccc(-c4nc[nH]n4)cc23)c1 [CC-401] | > 30 µM (inactive) | – | > 30 µM (inactive) | > 30 µM (inactive) | > 30 µM (inactive) | > 30 µM (inactive)
CC[C@@](C)(Nc1ccnc(-c2c[nH]c3ncccc23)n1)C(=O)NCC(F)(F)F [DECERNOTINIB] | > 30 µM (inactive) | – | > 30 µM (inactive) | 0.117 µM (active) | > 30 µM (inactive) | > 30 µM (inactive)
CNC(=O)c1ccc(Nc2ncc(C(F)(F)F)c(NCc3nccnc3N(C)S(C)(=O)=O)n2)cc1 [DEFACTINIB] | > 30 µM (inactive) | > 30 µM (inactive) | > 30 µM (inactive) | > 30 µM (inactive) | > 30 µM (inactive) | –
COc1cc(Nc2ncc(F)c(Nc3ccc4c(n3)N(COP(=O)(O)O)C(=O)C(C)(C)O4)n2)cc(OC)c1OC [FOSTAMATINIB] | > 30 µM (inactive) | – | > 30 µM (inactive) | > 30 µM (inactive) | > 30 µM (inactive) | > 30 µM (inactive)
CCc1nc(C(N)=O)c(Nc2ccc(N3CCC(N4CCN(C)CC4)CC3)c(OC)c2)nc1NC1CCOCC1 [GILTERITINIB] | > 30 µM (inactive) | – | > 30 µM (inactive) | – | > 30 µM (inactive) | > 30 µM (inactive)
Cc1c(Cn2c(C)nc3c(C(=O)O)cc(N4CCOCC4)cc32)cccc1C(F)(F)F [GSK-2636771] | > 30 µM (inactive) | – | > 30 µM (inactive) | > 30 µM (inactive) | > 30 µM (inactive) | > 30 µM (inactive)
O=S(=O)(c1cccc2c(O)nccc12)N1CCCNCC1 [HYDROXYFASUDIL] | > 30 µM (inactive) | > 30 µM (inactive) | > 30 µM (inactive) | – | 3.96 µM (active) | > 30 µM (inactive)
C[C@]1(O)C[C@@H](c2nc(-c3ccc4ccc(-c5ccccc5)nc4c3)c3c(N)nccn32)C1 [LINSITINIB] | > 30 µM (inactive) | > 30 µM (inactive) | > 30 µM (inactive) | – | > 30 µM (inactive) | > 30 µM (inactive)
O=C(Nc1ccc(OC(F)(F)F)cc1)c1sccc1NCc1ccnc2ccccc12 [OSI-930] | – | – | > 30 µM (inactive) | > 30 µM (inactive) | > 30 µM (inactive) | > 30 µM (inactive)
FC(F)(F)c1ccc(CNc2ccc(Cc3c[nH]c4ncc(Cl)cc34)cn2)cn1 [PEXIDARTINIB] | – | > 30 µM (inactive) | > 30 µM (inactive) | > 30 µM (inactive) | > 30 µM (inactive) | > 30 µM (inactive)
COc1cc(F)c(F)c(Nc2ccc(I)cc2F)c1NS(=O)(=O)C1(C[C@H](O)CO)CC1 [REFAMETINIB] | > 30 µM (inactive) | – | > 30 µM (inactive) | > 30 µM (inactive) | > 30 µM (inactive) | > 30 µM (inactive)
O=C(O)c1ccc2c(c1)nc(Nc1cccc(Cl)c1)c1ccncc12 [SILMITASERTIB] | > 30 µM (inactive) | – | > 30 µM (inactive) | > 30 µM (inactive) | > 30 µM (inactive) | > 30 µM (inactive)
C=CCN(/C=C1/C(=O)O[C@H](COC)[C@@]2(C)C1=C(O)C(=O)C1=C2[C@H](OC(C)=O)C[C@]2(C)C(=O)CC[C@@H]12)CC=C [SONOLISIB] | – | – | > 30 µM (inactive) | > 30 µM (inactive) | > 30 µM (inactive) | –
CN1CCN(c2nc(C3=C(c4c[nH]c5ccccc45)C(=O)NC3=O)c3ccccc3n2)CC1 [SOTRASTAURIN] | > 30 µM (inactive) | – | > 30 µM (inactive) | – | > 30 µM (inactive) | –
Cc1cc(C(=O)Nc2cc(Oc3ccc4nc(NC(=O)C5CC5)cn4n3)ccc2C)n(C)n1 [TAK-593] | > 30 µM (inactive) | – | > 30 µM (inactive) | > 30 µM (inactive) | > 30 µM (inactive) | > 30 µM (inactive)
Cn1c(=O)c(F)c(Nc2ccc(I)cc2F)c2c(=O)n(C[C@@H](O)CO)cnc21 [TAK-733] | – | > 30 µM (inactive) | > 30 µM (inactive) | > 30 µM (inactive) | > 30 µM (inactive) | > 30 µM (inactive)
COc1cc2c(N3CCN(C(=O)Nc4ccc(OC(C)C)cc4)CC3)ncnc2cc1OCCCN1CCCCC1 [TANDUTINIB] | – | > 30 µM (inactive) | > 30 µM (inactive) | > 30 µM (inactive) | > 30 µM (inactive) | –
O[C@H]1CC[C@H](Nc2ncc3nc(Nc4c(F)cc(F)cc4F)n([C@H]4CCOC4)c3n2)CC1 [TANZISERTIB] | > 30 µM (inactive) | – | > 30 µM (inactive) | > 30 µM (inactive) | > 30 µM (inactive) | –
Cc1cc(-c2cc(OC(=O)c3ccccc3)ccc2Cl)cc2nnc(Nc3ccc(OCCN4CCCC4)cc3)nc12 [TG100-801] | – | – | > 30 µM (inactive) | > 30 µM (inactive) | > 30 µM (inactive) | –
